Drawing on ChEMBL document CHEMBL3132760, “Investigating -secretase protein interactions in live cells using active site-directed clickable dual-photoaffinity probes” (Medchemcomm, 2014), this text covers IC50 for eight molecules.

The assay addresses Gamma-secretase. In words: Inhibition of gamma-secretase (unknown origin) expressed in CHO cells expressing APP assessed as inhibition of amyloid beta 42 production. The assay is classed as cell-based, Homo sapiens.
By IC50 is commonly meant the midpoint of a concentration-inhibition curve. As to `C#CCCCCNC(=O)[C@H](Cc1ccccc1)NC(=O)[C@H](CC(C)C)NC(=O)[C@H](Cc1ccccc1)C[C@@H](O)[C@H](Cc1ccccc1)NC(=O)c1ccc(C(=O)c2ccccc2)cc1`, the IC50 was above 1000 nM. To `C#CCCCC(=O)Nc1ccc(C(=O)c2ccc(NC(=O)COCCOCCOCC(=O)NCCCOCCOCCOCCCNC(=O)[C@H](Cc3ccc(C(=O)c4ccccc4)cc3)NC(=O)[C@H](CC(C)C)NC(=O)[C@H](Cc3ccccc3)C[C@@H](O)[C@H](Cc3ccccc3)NC(=O)OC(C)(C)C)cc2)cc1` belongs 20 nM; to `C#CCOc1ccc(C(=O)c2ccc(OCCOCCOCCNC(=O)[C@H](Cc3ccccc3)NC(=O)[C@H](CC(C)C)NC(=O)[C@H](Cc3ccccc3)C[C@@H](O)[C@H](Cc3ccccc3)NC(=O)OC(C)(C)C)cc2)cc1`, 1 nM. With `C#CCCCC(=O)Nc1ccc(C(=O)c2ccc(NC(=O)COCCOCCOCC(=O)NCCCCCNC(=O)[C@H](Cc3ccc(C(=O)c4ccccc4)cc3)NC(=O)[C@H](CC(C)C)NC(=O)[C@H](Cc3ccccc3)C[C@@H](O)[C@H](Cc3ccccc3)NC(=O)OC(C)(C)C)cc2)cc1`, the IC50 is 33 nM. The result for `C#CCCCC(=O)Nc1ccc(C(=O)c2ccc(NC(=O)COCCOCCOCC(=O)NCCCCCNC(=O)[C@H](Cc3ccccc3)NC(=O)[C@H](CC(C)C)NC(=O)[C@H](Cc3ccccc3)C[C@@H](O)[C@H](Cc3ccccc3)NC(=O)OC(C)(C)C)cc2)cc1` reads 12 nM; that for `C#CCCCC(=O)Nc1ccc(C(=O)c2ccc(NC(=O)COCCOCCOCC(=O)NCCCOCCOCCOCCCNC(=O)[C@H](Cc3ccccc3)NC(=O)[C@H](CC(C)C)NC(=O)[C@H](Cc3ccccc3)C[C@@H](O)[C@H](Cc3ccccc3)NC(=O)OC(C)(C)C)cc2)cc1`, 23 nM; that for `C#CCCCCNC(=O)[C@H](Cc1ccc(C(=O)c2ccccc2)cc1)NC(=O)[C@H](CC(C)C)NC(=O)[C@H](Cc1ccccc1)C[C@@H](O)[C@H](Cc1ccccc1)NC(=O)c1ccc(C(=O)c2ccccc2)cc1`, 180 nM. To `C#CCOc1ccc(C(=O)c2ccc(OCCOCCOCCNC(=O)[C@H](Cc3ccc(C(=O)c4ccccc4)cc3)NC(=O)[C@H](CC(C)C)NC(=O)[C@H](Cc3ccccc3)C[C@@H](O)[C@H](Cc3ccccc3)NC(=O)OC(C)(C)C)cc2)cc1` belongs 1.5 nM.
